Results from patent publication US8134015B2, “Compound inhibiting in vivo phosphorous transport and medicine containing the same” (Kyowa Hakko Kirin Co., Ltd., priority 2003, dated 2012).

molecular target: T1, rat NaPi-2b (Rattus norvegicus, UniProt Q9JJ09); experiment: Sodium-dependent phosphate uptake of Xenopus oocytes which expressed NaPi-2b (32P); format: cell-based; details: Xenopus oocytes expressing rat NaPi-2b, 32P radioactive phosphorus; read-out: IC50 (phosphate uptake inhibitory activity)
T1 construct: expressed in transfected cells; host or cells: Xenopus oocytes injected with cRNA
T1 sequence (Q9JJ09 1-695): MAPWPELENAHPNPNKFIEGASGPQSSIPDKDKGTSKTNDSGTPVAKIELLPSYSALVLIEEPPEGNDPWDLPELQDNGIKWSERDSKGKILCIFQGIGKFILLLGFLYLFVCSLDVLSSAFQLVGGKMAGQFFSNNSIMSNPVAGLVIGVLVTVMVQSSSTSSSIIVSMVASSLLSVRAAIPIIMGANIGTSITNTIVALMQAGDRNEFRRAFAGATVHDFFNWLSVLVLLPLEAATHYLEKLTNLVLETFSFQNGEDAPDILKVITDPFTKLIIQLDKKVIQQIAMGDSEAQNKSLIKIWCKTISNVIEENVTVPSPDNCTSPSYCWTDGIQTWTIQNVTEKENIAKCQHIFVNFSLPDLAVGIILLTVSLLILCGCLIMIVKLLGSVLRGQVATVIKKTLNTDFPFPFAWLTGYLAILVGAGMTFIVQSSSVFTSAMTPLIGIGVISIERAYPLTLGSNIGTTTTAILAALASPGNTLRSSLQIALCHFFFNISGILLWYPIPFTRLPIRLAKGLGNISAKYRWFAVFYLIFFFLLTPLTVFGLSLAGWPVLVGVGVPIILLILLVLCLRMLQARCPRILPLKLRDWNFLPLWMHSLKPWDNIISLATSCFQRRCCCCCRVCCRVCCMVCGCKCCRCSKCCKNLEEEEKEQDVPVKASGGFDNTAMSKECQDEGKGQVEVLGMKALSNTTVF
How it was run: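 Percent inhibition at 300 μM and 100 μM comes from the same inhibition curve of 32P uptake. Assay used oocytes expressing rat NaPi-2b after 2 days of culture.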

| IC50 [µM] | Structure (SMILES) |
| --- | --- |
| 0.75 | Cc1ccc(/C=N/NC(=O)c2ccccc2NC(=O)c2cccnc2)cc1 [Compound 132, N-[2-(4-Methyl-benzylidene-hydrazinocarbonyl)-phenyl]-nicotinamide] |
| 0.88 | Cc1ccc(/C=N/NC(=O)c2ccccc2NC(=O)c2cccnc2)cc1C [Compound 133, N-[2-(3,4-Dimethyl-benzylidene-hydrazinocarbonyl)-phenyl]-nicotinamide] |
| 7.82 | O=C(Nc1ccccc1C(=O)N/N=C/c1cccc(F)c1)c1ccncc1 [Compound 134, N-[2-(3-Fluoro-benzylidene-hydrazinocarbonyl)-phenyl]-isonicotinamide] |
| 3.74 | O=C(Nc1ccccc1C(=O)N/N=C/c1ccc(F)cc1)c1ccncc1 [Compound 135, N-[2-(4-Fluoro-benzylidene-hydrazinocarbonyl)-phenyl]-isonicotinamide] |
| 4.52 | Cc1cccc(/C=N/NC(=O)c2ccccc2NC(=O)c2ccncc2)c1 [Compound 136, N-[2-(3-Methyl-benzylidene-hydrazinocarbonyl)-phenyl]-isonicotinamide] |
| 3 | Cc1ccc(/C=N/NC(=O)c2ccccc2NC(=O)c2ccncc2)cc1 [Compound 137, N-[2-(4-Methyl-benzylidene-hydrazinocarbonyl)-phenyl]-isonicotinamide] |
| 4.47 | Cc1ccc(/C=N/NC(=O)c2ccccc2NC(=O)c2ccncc2)cc1C [Compound 138, N-[2-(3,4-Dimethyl-benzylidene-hydrazinocarbonyl)-phenyl]-isonicotinamide] |
| 55.5 | COc1ccc(C(=O)Nc2ccc(OCCN(C)C)cc2C(=O)N/N=C/c2ccc(F)cc2)cc1OC [Compound 139, N-[4-(2-Dimethylamino-ethoxy-)-2-(4-fluoro-benzylidene-hydrazinocarbonyl)-phenyl]-3,4-dimethoxy-benzamide] |
| 74.2 | CCN(CC)CCOc1ccc(NC(=O)c2ccc(OC)c(OC)c2)c(C(=O)N/N=C/c2ccc(F)cc2)c1 [Compound 140, N-[4-(2-Diethylamino-ethoxy)-2-(4-fluoro-benzylidene-hydrazinocarbonyl)-phenyl]-3,4-dimethoxy-benzamide] |
| 5.78 | COc1ccc(NC(=O)c2ccc(OC)c(OC)c2)c(C(=O)N/N=C/c2cccc(F)c2)c1 [Compound 141, N-[2-(3-Fluoro-benzylidene-hydrazinocarbonyl)-4-methoxy-phenyl]-3,4-dimethoxy-benzamide] |
| 9.2 | COc1ccc(NC(=O)c2ccc(OC)c(OC)c2)c(C(=O)N/N=C/c2ccc(F)cc2)c1 [Compound 142, N-[2-(4-Fluoro-benzylidene-hydrazinocarbonyl)-4-methoxy-phenyl]-3,4-dimethoxy-benzamide] |
| 5.88 | COc1ccc(NC(=O)c2ccc(OC)c(OC)c2)c(C(=O)N/N=C/c2cccc(C)c2)c1 [Compound 143, 3,4-Dimethoxy-N-[4-methoxy-2-(3-methyl-benzylidene-hydrazinocarbonyl)-phenyl]-benzamide] |
| 5.02 | COc1ccc(NC(=O)c2ccc(OC)c(OC)c2)c(C(=O)N/N=C/c2ccc(C)cc2)c1 [Compound 144, 3,4-Dimethoxy-N-[4-methoxy-2-(4-methyl-benzylidene-hydrazinocarbonyl)-phenyl]-benzamide] |
| 3.82 | COc1ccc(NC(=O)c2ccc(OC)c(OC)c2)c(C(=O)N/N=C/c2ccc(C)c(C)c2)c1 [Compound 145, N-[2-(3,4-Dimethyl-benzylidene-hydrazinocarbonyl)-4-methoxy-phenyl]-3,4-dimethoxy-benzamide] |
| 1.99 | COc1ccc(C(=O)Nc2ccc(C)cc2C(=O)N/N=C/c2cccc(F)c2)cc1OC [Compound 146, N-[2-(3-Fluoro-benzylidene-hydrazinocarbonyl)-4-methyl-phenyl]-3,4-dimethoxy-benzamide] |
| 7.68 | COc1ccc(C(=O)Nc2ccc(C)cc2C(=O)N/N=C/c2ccc(F)cc2)cc1OC [Compound 147, N-[2-(4-Fluoro-benzylidene-hydrazinocarbonyl)-4-methyl-phenyl]-3,4-dimethoxy-benzamide] |
| 15.6 | COc1ccc(C(=O)Nc2ccc(C)cc2C(=O)N/N=C/c2cccc(C)c2)cc1OC [Compound 148, 3,4-Dimethoxy-N-[4-methyl-2-(3-methyl-benzylidene-hydrazinocarbonyl)-phenyl]-benzamide] |
| 5.51 | COc1ccc(C(=O)Nc2ccc(C)cc2C(=O)N/N=C/c2ccc(C)cc2)cc1OC [Compound 149, 3,4-Dimethoxy-N-[4-methyl-2-(4-methyl-benzylidene-hydrazinocarbonyl)-phenyl]-benzamide] |

| IC50 [µM] | Structure (SMILES) |
| --- | --- |
| 1.09 | COc1ccc(C(=O)Nc2ccc(C)cc2C(=O)N/N=C/c2ccc(C)c(C)c2)cc1OC [Compound 150, N-[2-(3,4-Dimethyl-benzylidene-hydrazinocarbonyl)-4-methyl-phenyl]-3,4-dimethoxy-benzamide] |
| 3.07 | O=C(Nc1ccc(Br)cc1C(=O)N/N=C/c1cccc(F)c1)c1ccco1 [Compound 151, Furan-2-carboxylic acid [4-bromo-2-(3-fluoro-benzylidene-hydrazinocarbonyl)-phenyl]-amide] |
| 1.48 | O=C(Nc1ccc(Br)cc1C(=O)N/N=C/c1ccc(F)cc1)c1ccco1 [Compound 152, Furan-2-carboxylic acid [4-bromo-2-(4-fluoro-benzylidene-hydrazinocarbonyl)-phenyl]-amide] |
| 3.5 | Cc1cccc(/C=N/NC(=O)c2cc(Br)ccc2NC(=O)c2ccco2)c1 [Compound 153, Furan-2-carboxylic acid [4-bromo-2-(3-methyl-benzylidene-hydrazinocarbonyl)-phenyl]-amide] |
| 2.37 | Cc1ccc(/C=N/NC(=O)c2cc(Br)ccc2NC(=O)c2ccco2)cc1 [Compound 154, Furan-2-carboxylic acid [4-bromo-2-(4-methyl-benzylidene-hydrazinocarbonyl)-phenyl]-amide] |
| 0.32 | Cc1ccc(/C=N/NC(=O)c2cc(Br)ccc2NC(=O)c2ccco2)cc1C [Compound 155, Furan-2-carboxylic acid [4-bromo-2-(3,4-dimethyl-benzylidene-hydrazinocarbonyl)-phenyl]-amide] |
| 0.46 | O=C(Nc1ccc(Br)cc1C(=O)N/N=C/c1ccc(Cl)c(C(F)(F)F)c1)c1ccco1 [Compound 156, Furan-2-carboxylic acid [4-bromo-2-(4-chloro-3-trifluoromethyl-benzylidene-hydrazinocarbonyl)-phenyl]-amide] |
| 3.28 | O=C(Nc1ccc(Br)cc1C(=O)N/N=C/c1ccc(F)cc1)c1cccs1 [Compound 158, Thiophene-2-carboxylic acid [4-bromo-2-(4-fluoro-benzylidene-hydrazinocarbonyl)-phenyl]-amide] |
| 4.35 | Cc1cccc(/C=N/NC(=O)c2cc(Br)ccc2NC(=O)c2cccs2)c1 [Compound 159, Thiophene-2-carboxylic acid [4-bromo-2-(3-methyl-benzylidene-hydrazinocarbonyl)-phenyl]-amide] |
| 0.93 | Cc1ccc(/C=N/NC(=O)c2cc(Br)ccc2NC(=O)c2cccs2)cc1 [Compound 160, Thiophene-2-carboxylic acid [4-bromo-2-(4-methyl-benzylidene-hydrazinocarbonyl)-phenyl]-amide] |
| 0.96 | Cc1ccc(/C=N/NC(=O)c2cc(Br)ccc2NC(=O)c2cccs2)cc1C [Compound 161, Thiophene-2-carboxylic acid [4-bromo-2-(3,4-dimethyl-benzylidene-hydrazinocarbonyl)-phenyl]-amide] |
| 3.11 | O=C(Nc1ccc(Br)cc1C(=O)N/N=C/c1ccc(Cl)c(C(F)(F)F)c1)c1cccs1 [Compound 162, Thiophene-2-carboxylic acid [4-bromo-2-(4-chloro-3-trifluoromethyl-benzylidene-hydrazinocarbonyl)-phenyl]-amide] |
| 27.9 | O=C(Nc1ccc(Br)cc1C(=O)N/N=C/c1cccc(F)c1)c1ccncc1 [Compound 166, N-[4-Bromo-2-(3-fluoro-benzylidene-hydrazinocarbonyl)-phenyl]-isonicotinamide] |
| 30.2 | O=C(Nc1ccc(Br)cc1C(=O)N/N=C/c1ccc(F)cc1)c1ccncc1 [Compound 167, N-[4-Bromo-2-(4-fluoro-benzylidene-hydrazinocarbonyl)-phenyl]-isonicotinamide] |
| 4.84 | Cc1cccc(/C=N/NC(=O)c2cc(Br)ccc2NC(=O)c2ccncc2)c1 [Compound 168, N-[4-Bromo-2-(3-methyl-benzylidene-hydrazinocarbonyl)-phenyl]-isonicotinamide] |
| 4.24 | Cc1ccc(/C=N/NC(=O)c2cc(Br)ccc2NC(=O)c2ccncc2)cc1 [Compound 169, N-[4-Bromo-2-(4-methyl-benzylidene-hydrazinocarbonyl)-phenyl]-isonicotinamide] |
| 5.34 | Cc1ccc(/C=N/NC(=O)c2cc(Br)ccc2NC(=O)c2ccncc2)cc1C [Compound 170, N-[4-Bromo-2-(3,4-dimethyl-benzylidene-hydrazinocarbonyl)-phenyl]-isonicotinamide] |
